Assays:
[1] = tested on: eck receptor on CHO 19.32 cells; assay: Chemical crosslinking of 125I-EBP to CHO 19.32 cells; type: binding, human
Protocol: (§1) CHO-cell derived EBP was radiolabelled with ^125 I as described below for use in crosslinking and binding studies. Five or 10 μg of EBP in 0.1M sodium phosphate (NAPO4, pH 8.0) was added to 5 mCi of dried ^125 I-Bolton-Hunter reagent (NEN, Boston, Mass.) in a final volume of 50 μl or 100 μl, and the tube was incubated at 4° C. for 1 h. The reaction was terminated by addition of 0.3 ml of 0.2M glycine in 0.1M NaPO4, followed by incubation at 4° C. for 5 min. Labeled protein was separated from unincorporated reagent by gel filtration chromatography on a 10 ml PD10 column containing Sephadex G-25M (Pharmacia) equilibrated with 0.1M NaPO4 --0.25% gelatin. Specific activity of the ^125 I-EBP ranged from 4 to 19 cpm/pg.
(§2) Crosslinking of EBP to either LIM 2405 (a cell line naturally expressing the eck receptor) or CHO 19.32 (Chinese hamster ovary cells transfected with a clone of the full length eck receptor) was carried out as follows. CHO cells were grown in suspension to a density of approximately 5×10^5 cells/ml in media. LIM2405 cells were grown in RPMI 1640 media containing 5% FCS, 1 μg/ml insulin, 1 μg/ml hydrocortisone, 10 μM thioglycerol and 2 mM L-glutamine to approximately 90% confluency in T-175 flasks and removed by scraping for use in the crosslinking studies. Cells were spun down and resuspended in PBS to give a single cell suspension. For each crosslinking reaction, 2×10^6 cells were mixed with approximately 20 ng of ^125 I-EBP in a total volume of 1 ml. This mixture was incubated at 4° C. for 1 h to allow binding of EBP to cell surface receptors before the addition of 20 μl of 10 mM disuccinimidyl suberate (DSS) as a crosslinking agent. Cells were then washed three times in binding buffer, collected by centrifugation, and the amount of radioactivity incorporated into the cell pellets was counted to assess the degree of crosslinking. The cells were then lysed by treatment with 100 ul PBS, 1 mM EDTA, 0.5% NP-40, 1 mM phenylmethylsulfonyl fluoride (PMSF, Sigma, St. Louis, Mo.) for 10 min at 4° C. […]

eck receptor = assay: as above; type: binding, human; settings: untransfected cells (CHOd-)
Protocol: as §1, §2

eck receptor (p130^eck) = assay: p130eck autophosphorylation in LIM 2405 cells; type: cell-based, human; settings: for eck receptor phosphorylation: intact LIM 2405 cells, 10-15 min at 37° C.
Protocol: The LIM 2405 colorectal carcinoma cell line (Whitehead et al. Immunol. and Cell Biol. 70, 227 (1992)) was maintained in RPMI 1640 containing 5% FBS, 1 μg/ml insulin, 10 μg/ml hydrocortisone and 10 μM α-thioglycerol, and subpassaged by trypsination and dilution (1:5) into fresh media. Prior to assay 2.5×10^5 LIM 2405 cells were seeded into 6-well dishes (Falcon #3046) and incubated for 24 hr at 37° C. The media was discarded and replaced with serum-free RPMI 1640 containing 0.03% BSA, 1 μg/ml insulin, 10 μg/ml hydrocortisone and 10 μM α-thioglycerol, then incubated for 12-18 hr. In some experiments the cell cultures were labelled with ^32 P-orthophosphate (2 mCi/ml) in phosphate-free RPMI 1640 (Flow) for 2-3 hr prior to treatment. Growth factor stock solutions were prediluted at varying concentrations into 2.0 ml of serum-free media, then warmed to 37° C. Cell cultures were removed from the incubator, and the supernatant media discarded. Treatments were promptly added and the cell cultures incubated at 37° C. for 10-15 min. The cultures were then removed from the incubator, placed on ice, and the culture supernatant aspirated.
The treated cell cultures were chilled to 0° C. then washed once with ice-cold PBS (GIBCO). The residual PBS was aspirated and the cells were lysed by the addition of 1.0 ml of ice-cold RIPA buffer (10 mM sodium phosphate, pH 7.4, 150 mM sodium chloride, 0.1% sodium dodecyl sulfate, 1% NP-40, 1% deoxycholate, 1% Trasylol, 2 mM EDTA, 50 mM sodium fluoride and 100 mM sodium orthovanadate). After a 10 min incubation the lysates were transferred to 1.5 ml tubes and clarified by centrifugation for 30 min at 10,000×g. The clarified lysate supernatants were transferred to new tubes and immunoprecipitated with 1.0 μg/ml of affinity purified rabbit anti-Eck C-terminal domain antibody for 2 hr at 0° C. Immune complexes were adsorbed to Protein-G Sepharose beads (Pharmacia) at 4° C. for 30 min, washed twice with ice-cold RIPA buffer, once with 0.1M Tris-HCl, pH 8.0, containing 0.5M LiCl, and once with RIPA. The resulting immunoprecipitates were solubilized with SDS-PAGE sample buffer and stored for further analysis.
The anti-eck immunoprecipitates from treated and untreated LIM 2405 cell lysates were resolved on 7.5% polyacrylamide gels as previously described (Boyle et al. Meth. Enzymol. 201, 110 (1991)). […] Immune complexes were detected by chemiluminescent exposure (ECL, Amersham) to Kodak X-OMAT X-ray film at room temperature for 0.5-5 min.
Eck receptor immunoprecipitates from ^32 P-labelled LIM 2405 cells were resolved by SDS-PAGE, and the gel dried directly without fixation. After exposure to X-ray film the labelled eck receptor band was isolated and phosphoamino acid content determined as described (Boyle et al. Meth. Enzymol. 201, 110 (1991))

Substance: CHO-EBP: recombinant EBP purified from supernatants of CHO cells transfected with the EBP gene; mainly EBP^1-150 and EBP^1-159
- competition for binding and crosslinking of 125I-rEBP ([1]; 50-fold molar excess): able to compete
- crosslinking to CHO 19.32 cells ([1]; CHO cells transfected with eck, DSS crosslinker): could be crosslinked
- crosslinking to untransfected CHO cells (eck receptor): but not to the untransfected cells
- total cellular eck protein levels (eck receptor (p130^eck); LIM 2405 cells after exposure to soluble EBP): modest dose-dependent decrease
- eck receptor phosphorylation (eck receptor (p130^eck); listed as CHO cell-derived rEBP): stimulated eck receptor phosphorylation
- eck receptor phosphorylation (eck receptor (p130^eck); listed as CHO-derived rEBP): active in inducing phosphorylation

Source: patent US5716934A, “Eck receptor ligands” (Amgen Inc., priority 1995, dated 1998)
